{"source": "EPA's ToxRefDB 2", "key": {"mouse [1]": {"tested_on": "mouse", "conditions": "Carcinogenicity, b6c3f1, Oral, Gavage/Intubation, dose end: 102 week, group: systemic"}, "rat [2]": {"tested_on": "rat", "conditions": "Subchronic oral toxicity in rodents, fischer, Gavage/Intubation, dose end: 13 week, group: systemic"}, "rat [3]": {"tested_on": "rat", "conditions": "Carcinogenicity, fischer, Oral, Gavage/Intubation, dose end: 102 week, group: systemic"}, "mouse [4]": {"tested_on": "mouse", "conditions": "Subchronic oral toxicity in rodents, b6c3f1, Gavage/Intubation, dose end: 13 week, group: systemic"}, "rabbit": {"tested_on": "rabbit", "conditions": "Prenatal developmental toxicity study; Oral; Gavage/Intubation; dose end: 19 GD; group: maternal; systemic / in life observation / clinical signs / abnormal feces + systemic / in life observation / clinical signs / red or crusty deposits …"}, "primate": {"tested_on": "primate", "conditions": "Subchronic oral toxicity in nonrodent, Gavage/Intubation, dose end: 91 day, group: systemic, systemic / in life observation / body weight / body weight + systemic / in life observation / clinical signs / [other] + systemic / in life …"}, "rat [5]": {"tested_on": "rat", "conditions": "Sub-acute repeat dose toxicity; wistar; Oral; Gavage/Intubation; dose end: 7 day; group: systemic; systemic / clinical chemistry / [other] / [other] + systemic / pathology microscopic / blood / vasculitis"}, "rat [6]": {"tested_on": "rat", "conditions": "Sub-acute repeat dose toxicity; Oral; Gavage/Intubation; dose end: 14 day; group: systemic; systemic / in life observation / clinical signs / ataxia + systemic / in life observation / clinical signs / urine staining - perineum + …"}, "rat [7]": {"tested_on": "rat", "conditions": "Fertility (Segment I), Oral, Gavage/Intubation, dose end: 1 generation, group: parental"}, "rat [8]": {"tested_on": "rat", "conditions": "Sub-acute repeat dose toxicity, Oral, Gavage/Intubation, dose end: 7 day, group: systemic"}, "dog": {"tested_on": "dog", "conditions": "Sub-acute repeat dose toxicity, beagle, Oral, Gavage/Intubation, dose end: 14 day, group: systemic"}, "rat [9]": {"tested_on": "rat", "conditions": "Sub-acute repeat dose toxicity, sprague dawley, Oral, Gavage/Intubation, dose end: 14 day, group: systemic"}, "rat [10]": {"tested_on": "rat", "conditions": "Sub-acute repeat dose toxicity; Oral; Gavage/Intubation; dose end: 14 day; group: systemic; systemic / in life observation / clinical signs / convulsions + systemic / in life observation / clinical signs / reduced activity + …"}, "rat [11]": {"tested_on": "rat", "conditions": "Sub-acute repeat dose toxicity, sprague dawley, Oral, Gavage/Intubation, dose end: 30 day, group: systemic"}, "[12]": {"conditions": "systemic / pathology microscopic / kidney / cytomegaly + systemic / pathology microscopic / thyroid gland / hyperplasia"}, "[13]": {"conditions": "systemic / pathology microscopic / kidney / cytomegaly + systemic / pathology microscopic / thyroid gland / hyperplasia + systemic / …"}, "[14]": {"conditions": "systemic / in life observation / body weight / body weight + systemic / in life observation / mortality / mortality + systemic / pathology …"}, "[15]": {"conditions": "systemic / pathology microscopic / intestine large / adenocarcinoma + systemic / pathology microscopic / intestine large / polyp adenomatous…"}, "[16]": {"conditions": "systemic / pathology microscopic / kidney / cytomegaly + systemic / pathology microscopic / liver / necrosis"}, "[17]": {"conditions": "systemic / in life observation / body weight / body weight + systemic / pathology microscopic / liver / granuloma + systemic / pathology …"}, "[18]": {"conditions": "systemic / in life observation / clinical signs / abnormal feces + systemic / in life observation / clinical signs / convulsions + systemic…"}, "[19]": {"conditions": "systemic / in life observation / clinical signs / convulsions + systemic / in life observation / clinical signs / salivation"}, "[20]": {"conditions": "systemic / clinical chemistry / cholesterol / cholesterol + systemic / clinical chemistry / gamma glutamyl transferase (ggt) / gamma …"}, "[21]": {"conditions": "systemic / in life observation / clinical signs / abnormal feces + systemic / in life observation / clinical signs / arrhythmia"}, "[22]": {"conditions": "systemic / in life observation / clinical signs / abnormal feces + systemic / in life observation / clinical signs / arrhythmia + systemic…"}, "[23]": {"conditions": "systemic / clinical chemistry / [other] / [other] + systemic / in life observation / body weight / body weight gain + systemic / in life …"}, "[24]": {"conditions": "systemic / pathology microscopic / liver / fatty change + systemic / pathology microscopic / liver / hypertrophy"}, "[25]": {"conditions": "systemic / clinical chemistry / aspartate aminotransferase (ast/sgot) / aspartate aminotransferase (ast/sgot) + systemic / clinical …"}}, "data": [{"smiles": "ClC(Cl)Br", "note": "[Bromodichloromethane]", "values": [{"measurement": "LOAEL", "setting": "mouse [1]; [12]", "value": 25, "unit": "mg/kg/day"}, {"measurement": "NOAEL", "setting": "mouse [1]; [12]", "value": "< 25", "unit": "mg/kg/day"}, {"measurement": "LEL", "setting": "mouse [1]; [13]", "value": 25, "unit": "mg/kg/day"}, {"measurement": "NEL", "setting": "mouse [1]; [13]", "value": "< 25", "unit": "mg/kg/day"}, {"measurement": "LEL", "setting": "rat [2]; systemic / in life observation / body weight / body weight", "value": 150, "unit": "mg/kg/day"}, {"measurement": "LOAEL", "setting": "rat [2]; [14]", "value": "> 300", "unit": "mg/kg/day"}, {"measurement": "NEL", "setting": "rat [2]; [14]", "value": 75, "unit": "mg/kg/day"}, {"measurement": "NOAEL", "setting": "rat [2]; [14]", "value": "≥ 300", "unit": "mg/kg/day"}, {"measurement": "LOAEL", "setting": "rat [3]; [15]", "value": "> 100", "unit": "mg/kg/day"}, {"measurement": "NOAEL", "setting": "rat [3]; [15]", "value": "≥ 100", "unit": "mg/kg/day"}, {"measurement": "LEL", "setting": "rat [3]; [16]", "value": 50, "unit": "mg/kg/day"}, {"measurement": "NEL", "setting": "rat [3]; [16]", "value": "< 50", "unit": "mg/kg/day"}, {"measurement": "LEL", "setting": "mouse [4]; systemic / in life observation / body weight / body weight + systemic / pathology microscopic / kidney / necrosis", "value": 100, "unit": "mg/kg/day"}, {"measurement": "LOAEL", "setting": "mouse [4]; [17]", "value": "> 400", "unit": "mg/kg/day"}, {"measurement": "NOAEL", "setting": "mouse [4]; [17]", "value": "≥ 400", "unit": "mg/kg/day"}]}, {"smiles": "Cc1cc2c3c(c1)C(c1ccccc1)=N[C@@H](NC(=O)c1ccncc1)C(=O)N3CC2", "note": "[CI-1018]", "values": [{"measurement": "LOAEL", "setting": "rabbit", "value": "> 100", "unit": "mg/kg/day"}, {"measurement": "NEL", "setting": "rabbit", "value": 10, "unit": "mg/kg/day"}, {"measurement": "NOAEL", "setting": "rabbit", "value": "≥ 100", "unit": "mg/kg/day"}, {"measurement": "LEL", "setting": "primate", "value": 740, "unit": "mg/kg/day"}, {"measurement": "LOAEL", "setting": "primate", "value": "> 740", "unit": "mg/kg/day"}, {"measurement": "NEL", "setting": "primate", "value": "< 740", "unit": "mg/kg/day"}, {"measurement": "NOAEL", "setting": "primate", "value": "≥ 740", "unit": "mg/kg/day"}, {"measurement": "LEL", "setting": "rat [5]", "value": 375, "unit": "mg/kg/day"}, {"measurement": "LOAEL", "setting": "rat [5]", "value": "> 750", "unit": "mg/kg/day"}, {"measurement": "NEL", "setting": "rat [5]", "value": 75, "unit": "mg/kg/day"}, {"measurement": "NOAEL", "setting": "rat [5]", "value": "≥ 750", "unit": "mg/kg/day"}, {"measurement": "LEL", "setting": "rat [6]", "value": 1000, "unit": "mg/kg/day"}, {"measurement": "LOAEL", "setting": "rat [6]", "value": "> 1000", "unit": "mg/kg/day"}, {"measurement": "NEL", "setting": "rat [6]", "value": 300, "unit": "mg/kg/day"}, {"measurement": "NOAEL", "setting": "rat [6]", "value": "≥ 1000", "unit": "mg/kg/day"}, {"measurement": "LOAEL", "setting": "rat [7]; [18]", "value": "> 300", "unit": "mg/kg/day"}, {"measurement": "NOAEL", "setting": "rat [7]; [18]", "value": "≥ 300", "unit": "mg/kg/day"}, {"measurement": "LEL", "setting": "rat [7]; [19]", "value": 30, "unit": "mg/kg/day"}, {"measurement": "NEL", "setting": "rat [7]; [19]", "value": "< 30", "unit": "mg/kg/day"}]}, {"smiles": "CC[C@H]1CC[C@H](NCc2cc3c(cc2OC)[C@H]2C[C@H]2C(=O)N3C)[C@H](c2ccccc2)N1", "values": [{"measurement": "LOAEL", "setting": "rat [8]; [20]", "value": "> 100", "unit": "mg/kg/day"}, {"measurement": "NEL", "setting": "rat [8]; [20]", "value": 3, "unit": "mg/kg/day"}, {"measurement": "NOAEL", "setting": "rat [8]; [20]", "value": "≥ 100", "unit": "mg/kg/day"}, {"measurement": "LEL", "setting": "rat [8]; systemic / organ weight / liver / absolute", "value": 30, "unit": "mg/kg/day"}, {"measurement": "LEL", "setting": "dog; [21]", "value": 3, "unit": "mg/kg/day"}, {"measurement": "NEL", "setting": "dog; [21]", "value": "< 3", "unit": "mg/kg/day"}, {"measurement": "LOAEL", "setting": "dog; [22]", "value": "> 15", "unit": "mg/kg/day"}, {"measurement": "NOAEL", "setting": "dog; [22]", "value": "≥ 15", "unit": "mg/kg/day"}, {"measurement": "LOAEL", "setting": "rat [9]; [23]", "value": "> 100", "unit": "mg/kg/day"}, {"measurement": "NOAEL", "setting": "rat [9]; [23]", "value": "≥ 100", "unit": "mg/kg/day"}, {"measurement": "LEL", "setting": "rat [9]; [24]", "value": 6, "unit": "mg/kg/day"}, {"measurement": "NEL", "setting": "rat [9]; [24]", "value": "< 6", "unit": "mg/kg/day"}, {"measurement": "LEL", "setting": "rat [10]", "value": 100, "unit": "mg/kg/day"}, {"measurement": "LOAEL", "setting": "rat [10]", "value": "> 100", "unit": "mg/kg/day"}, {"measurement": "NOAEL", "setting": "rat [10]", "value": "≥ 100", "unit": "mg/kg/day"}, {"measurement": "LOAEL", "setting": "rat [11]; [25]", "value": "> 100", "unit": "mg/kg/day"}, {"measurement": "NEL", "setting": "rat [11]; [25]", "value": 3, "unit": "mg/kg/day"}, {"measurement": "NOAEL", "setting": "rat [11]; [25]", "value": "≥ 100", "unit": "mg/kg/day"}, {"measurement": "LEL", "setting": "rat [11]; systemic / in life observation / clinical signs / salivation + systemic / organ weight / liver / absolute", "value": 30, "unit": "mg/kg/day"}]}]}
